Measured values as given in paper PMC8596301 (Frontiers in Pharmacology, 2021).

Key:
C57Bl/6 male mice [1] = assay: Brief and extended conditioned place preference paradigms; assay type: in vivo, mouse; details: 10 mg∙kg^−1 s.c.; four conditioning sessions; male WT mice
Source text: Mice were conditioned to drugs and vehicle as described previously in two-chamber conditioned place preference (CPP) boxes in a counterbalanced, unbiased approach for either two drug conditioning sessions over 2 days (brief) or four drug conditioning sessions over 8 days (extended) ([Váradi et al., 2015]; [Gutridge et al., 2020]). For brief and extended conditioned place preference experiments, separate groups of mice were used for each drug dose. A summary of all statistical analyses for the CPP data can be found in Supplemental Table S4. In brief, all CPP data were analyzed with two-tailed, paired t tests comparing time spent on the drug-paired side pre- and post-conditioning.

FLAG-mouse κOR = molecular target: T1, FLAG-mouse κOR (Mus musculus, UniProt P33534); assay: cell-based
T1 construct: expressed in transfected cells; host or cells: HEK cells (HEK-293), transient, co-transfected with pGloSensor22F
T1 sequence (P33534 whole entry): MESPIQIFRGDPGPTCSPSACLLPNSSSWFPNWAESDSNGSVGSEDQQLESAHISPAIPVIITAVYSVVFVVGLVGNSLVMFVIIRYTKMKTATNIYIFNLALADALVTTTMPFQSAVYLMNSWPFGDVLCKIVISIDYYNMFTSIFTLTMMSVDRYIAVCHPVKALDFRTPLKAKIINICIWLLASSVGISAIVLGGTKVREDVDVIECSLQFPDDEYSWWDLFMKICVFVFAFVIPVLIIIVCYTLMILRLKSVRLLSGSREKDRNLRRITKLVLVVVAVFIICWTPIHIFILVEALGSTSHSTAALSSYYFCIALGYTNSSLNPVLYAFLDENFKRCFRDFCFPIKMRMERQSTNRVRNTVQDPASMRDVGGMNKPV

δOR KO mice = assay: Two-bottle choice alcohol paradigm (drinking in the dark, 10% ethanol vs. water); assay type: in vivo, mouse; details: δOR KO male mice
Protocol: (§1) Mice were subject to drinking in the dark (DID), limited access (4 h per day), two-bottle choice (10% ethanol vs. water) paradigm in which they were trained to consume alcohol voluntarily as previously described ([Rhodes et al., 2005]; [van Rijn and Whistler, 2009]). Mice reached stable alcohol consumption within 3 weeks of training, and after the third week, drug injections were administered prior to the daily drinking session on Friday. Drug’s effect on alcohol consumption was measured as the change in Friday’s alcohol intake minus the average alcohol intake from the preceding Tuesday–Thursday of that week (g∙kg^−1). A summary of all statistical analyses for the drinking data can be found in Supplemental Tables S6–S9. In brief, results from two-bottle choice alcohol consumption paradigms were assessed for statistical significance using RM two-way ANOVA for main effects of drug dose, treatment day, and drug dose × treatment day; Sidak’s multiple comparisons (MC) between alcohol consumption baseline (Tuesday–Thursday average) vs. treatment day consumption (Friday) were then used as the post hoc test for each drug dose tested. The same RM two-way ANOVA and Sidak’s MC post hoc analyses were used for water consumption and ethanol preference data. […] Sex differences between baseline data were evaluated using RM two-way ANOVA for main effects of sex, treatment baseline, and sex × treatment baseline; Sidak’s multiple comparisons (MC) between male and female mice were then used as the post hoc test for each treatment week tested.

wild-type C57Bl/6 mice = assay: as above; assay type: in vivo, mouse
Protocol: as §1

κOR = κOR (Homo sapiens, UniProt P41145); assay: biochemical; assay type: binding; details: Binding Ki (µM)
Sequence of κOR (P41145 whole entry): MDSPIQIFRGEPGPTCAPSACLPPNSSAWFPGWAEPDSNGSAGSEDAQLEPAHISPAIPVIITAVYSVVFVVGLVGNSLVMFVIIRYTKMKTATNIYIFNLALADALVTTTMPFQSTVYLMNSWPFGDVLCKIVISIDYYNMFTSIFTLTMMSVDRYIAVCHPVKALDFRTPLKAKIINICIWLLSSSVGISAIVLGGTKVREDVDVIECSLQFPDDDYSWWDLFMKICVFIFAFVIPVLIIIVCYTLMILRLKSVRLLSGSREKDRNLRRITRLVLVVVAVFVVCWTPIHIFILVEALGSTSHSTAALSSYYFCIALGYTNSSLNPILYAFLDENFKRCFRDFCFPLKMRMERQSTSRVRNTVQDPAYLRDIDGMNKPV

HA-mouse µOR = molecular target: T2, HA-mouse µOR (Mus musculus, UniProt P42866); assay: cell-based
T2 construct: expressed in transfected cells; host or cells: HEK cells (HEK-293), transient, co-transfected with pGloSensor22F
T2 sequence (P42866 whole entry): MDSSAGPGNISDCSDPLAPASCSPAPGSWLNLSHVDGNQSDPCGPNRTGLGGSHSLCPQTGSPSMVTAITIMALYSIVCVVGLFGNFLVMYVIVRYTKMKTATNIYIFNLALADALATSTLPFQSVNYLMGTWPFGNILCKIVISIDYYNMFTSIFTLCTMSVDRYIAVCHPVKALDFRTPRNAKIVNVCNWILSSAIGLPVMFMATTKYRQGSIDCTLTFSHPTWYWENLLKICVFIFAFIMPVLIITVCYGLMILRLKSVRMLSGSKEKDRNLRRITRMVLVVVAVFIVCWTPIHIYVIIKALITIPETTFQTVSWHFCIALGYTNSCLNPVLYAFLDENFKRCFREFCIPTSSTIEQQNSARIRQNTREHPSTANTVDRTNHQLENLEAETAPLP

WT and δOR KO mice = assay: Seizure assay (modified Racine scale); assay type: in vivo, mouse; details: 10 mg∙kg^−1 s.c.; 30 min
Protocol: To assess drug-induced seizurogenic activity, mice were placed in a clear plastic cylinder (25 cm diameter, 35 cm height) immediately following drug injection and their activity was recorded in a well-lit, quiet room using iSpy camera software (iSpyConnect.com). A recording time of 90 min was chosen for the tested compounds based on previous observations of seizures time lengths in experiments with 30 mg∙kg^−1 paynantheine. If animals were not presenting with seizure activity after 30 min, the recording time was shortened accordingly. Seizure severity was scored based on the modified Racine scale (half-scores allowed) in bins of 3–5 min. Onset to first seizure symptom, onset to highest Racine score, and highest Racine score were also assessed. A summary of all statistical analyses for the seizure data can be found in Supplemental Table S3. In brief, seizure-like behavior between wild type and δOR KO mice was compared with a two-tailed, unpaired t test with Welch’s correction on area under the curve data generated from graphing the highest Racine score per time bin over 90 min for each mouse.

FLAG-mouse δOR = molecular target: T3, FLAG-mouse δOR (Mus musculus, UniProt P32300); assay: cell-based
T3 construct: expressed in transfected cells; host or cells: HEK cells (HEK-293), transient, co-transfected with pGloSensor22F
T3 sequence (P32300 whole entry): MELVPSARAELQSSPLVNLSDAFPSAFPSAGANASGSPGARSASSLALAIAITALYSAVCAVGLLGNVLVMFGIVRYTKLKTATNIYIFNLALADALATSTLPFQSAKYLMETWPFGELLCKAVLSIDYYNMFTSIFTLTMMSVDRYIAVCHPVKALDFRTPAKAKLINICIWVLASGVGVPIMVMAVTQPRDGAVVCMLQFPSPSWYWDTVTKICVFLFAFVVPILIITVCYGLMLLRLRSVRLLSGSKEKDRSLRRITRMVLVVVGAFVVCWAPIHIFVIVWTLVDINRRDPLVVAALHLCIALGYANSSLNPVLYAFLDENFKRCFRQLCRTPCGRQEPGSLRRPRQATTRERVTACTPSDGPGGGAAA

[2] = Maximum tolerated dose (side effect profile); details: C57Bl/6, mouse, in vivo, sc, 10 mg∙kg^−1
C57Bl/6 male mice [3] = assay: Tail flick thermal nociception assay; assay type: in vivo, mouse; details: 10 mg∙kg^−1 s.c.
C57Bl/6 male mice [4] = assay: Locomotor evaluation (ambulation); details: 10 mg∙kg^−1 s.c.; data from CPP experiment
δOR = δOR (Homo sapiens, UniProt P41143); assay: biochemical; assay type: binding
Sequence of δOR (P41143 whole entry): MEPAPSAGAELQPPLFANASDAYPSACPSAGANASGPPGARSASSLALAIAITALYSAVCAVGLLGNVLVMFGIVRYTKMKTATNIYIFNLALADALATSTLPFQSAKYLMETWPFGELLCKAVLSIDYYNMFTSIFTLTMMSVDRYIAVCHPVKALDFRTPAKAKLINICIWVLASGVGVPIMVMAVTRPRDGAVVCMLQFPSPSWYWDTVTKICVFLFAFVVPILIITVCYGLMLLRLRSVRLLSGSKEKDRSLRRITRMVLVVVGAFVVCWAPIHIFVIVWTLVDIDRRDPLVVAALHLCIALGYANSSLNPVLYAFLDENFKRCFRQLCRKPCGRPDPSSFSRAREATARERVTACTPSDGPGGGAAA

[5] = HEK293, read-out: cAMP α (% inhibition at maximal efficacy)
[6] = 10 mg∙kg^−1 s.c., WT male and female mice
[7] = 7-hydroxyspeciogynine 10 mg∙kg^−1 s.c., WT male mice

For `CC[C@H]1CN2CC[C@@]3(O)C(=Nc4cccc(OC)c43)[C@@H]2C[C@@H]1/C(=C\OC)C(=O)OC` [7OH SPG, 7-Hydroxyspeciogynine], the “Conditioned place preference, extended protocol” value (C57Bl/6 male mice [1]) was “did not develop conditioned place preference”, the IC50 (FLAG-mouse κOR) was 7.71 µM and the Emax (FLAG-mouse κOR; [5]) was 80 ± 20%. The Ethanol consumption (δOR KO mice; 7-hydroxyspeciogynine 3 mg∙kg^−1 s.c.) was “lack of effect”, the Ethanol consumption (δOR KO mice; 7-hydroxyspeciogynine 10 mg∙kg^−1 s.c.) was “significantly decreased ethanol consumption” and the “Ethanol consumption, water consumption, ethanol preference” value (wild-type C57Bl/6 mice; 3 mg∙kg^−1 s.c., WT female mice) was “did not significantly modulate ethanol consumption, water consumption, or ethanol preference”. For the same compound, the “Δ ethanol intake, males and females pooled” value (wild-type C57Bl/6 mice; 3 mg∙kg^−1 s.c., WT male and female mice) was “significant ethanol modulation effect”, the “Δ ethanol preference, males and females pooled” value (wild-type C57Bl/6 mice; [6]) was “significant decrease in ethanol preference” and the “Δ water consumption, males and females pooled” value (wild-type C57Bl/6 mice; [6]) was “concomitant increase in water consumption was evident”. For the same compound, the “Decrease in ethanol consumption” value (wild-type C57Bl/6 mice; 10 mg∙kg^−1 s.c., WT mice) was 1.2 ± 0.2 g/kg, the “Reduction in ethanol consumption” value (wild-type C57Bl/6 mice; 10 mg∙kg^−1 s.c., WT mice) was 40 ± 7% and the Ethanol preference (wild-type C57Bl/6 mice; [7]) was “corresponding decrease in ethanol preference”. For the same compound, the Water consumption (wild-type C57Bl/6 mice; [7]) was “concomitant increase in water consumption”, the Alcohol intake (wild-type C57Bl/6 mice; 7-hydroxyspeciogynine 3 and 10 mg∙kg^−1 s.c., wild-type male mice) was “reduced alcohol intake in a dose-dependent manner” and the Ki (κOR) was 1.63 µM. For the same compound, the IC50 (HA-mouse µOR) was 0.61 µM, the Emax (HA-mouse µOR; [5]) was 66 ± 6% and the Seizures (WT and δOR KO mice) was “nor induce noticeable seizures”. For the same compound, the IC50 (FLAG-mouse δOR) was 2.27 µM, the Emax (FLAG-mouse δOR; [5]) was 76 ± 6% and the MTD at 10 days [2] was at least 10 mg/kg. The “Block of morphine analgesia” value (C57Bl/6 male mice [3]; then morphine 6 mg∙kg^−1 s.c. 10 min later) was “did not produce antinociception (paired, two-tailed t test, t = 0.6193, df = 9, p = 0.5511) or block morphine analgesia”, the “Antinociception (agonist mode)” value (C57Bl/6 male mice [3]; male mice) was “did not produce antinociception” and the Ambulation (C57Bl/6 male mice [4]) was “did not significantly alter ambulation”. The Ki (δOR) was 0.46 µM.
